{
  "source": "patent US7091038B2",
  "about": "“Ecdysone receptor-based inducible gene expression system” (RheoGene, Inc., priority 2000, dated 2006)",
  "key": {"GAL4EcR + VP16USP [1]": {"tested_on": "GAL4EcR + VP16USP", "experiment": "Transactivation of reporter gene through switch 1.2 in CHO cells", "assay_type": "cell-based, Choristoneura fumiferana", "details": "switch 1.2, pGAL4RELuc", "procedure": "(§1) This construct was prepared in the same way as in switch 1.1 above except MmRXRDEF was replaced with the D, E and F domains from spruce budworm USP (“CfUSPDEF”; SEQ ID NO: 67). The constructs used in this example are similar to those disclosed in U.S. Pat. No. 5,880,333 except that Choristoneura fumiferana USP rather than Drosophila melanogaster USP was utilized.\n(§2) The cells were harvested and reporter activity was assayed.\n(§3) Cells were harvested 24–48 hr after adding ligands. […] Twenty μl of lysate was assayed."}, "GAL4RXR + VP16CfEcR": {"tested_on": "GAL4RXR + VP16CfEcR", "experiment": "Transactivation of reporter gene through switch 1.3 in CHO cells", "assay_type": "cell-based, Mus musculus; Choristoneura fumiferana", "details": "switch 1.3, pGAL4RELuc", "procedure": "as §2, §3"}, "GAL4USP + VP16CfEcR": {"tested_on": "GAL4USP + VP16CfEcR", "experiment": "Transactivation of reporter gene through switch 1.5 in CHO cells", "assay_type": "cell-based, Choristoneura fumiferana", "details": "switch 1.5, pGAL4RELuc", "procedure": "This construct was prepared in the same way as switch 1.3 except MmRXRDEF was replaced with CfUSPDEF (SEQ ID NO: 67).\nas §2, §3"}, "GAL4EcR + VP16USP [2]": {"tested_on": "GAL4EcR + VP16USP", "experiment": "Transactivation of reporter gene through switch 1.2 in 3T3 cells", "assay_type": "cell-based, Choristoneura fumiferana", "details": "switch 1.2, pGAL4RELuc", "procedure": "as §1, §2\n(§4) The cells were plated when they reached 50% confluency.\nas §3"}, "DmVgRXR + MmRXR [3]": {"target": "T1, DmVgRXR + MmRXR (Drosophila melanogaster, UniProt P34021, E282G/G283S/G286V)", "T1 sequence (P28700 whole entry)": "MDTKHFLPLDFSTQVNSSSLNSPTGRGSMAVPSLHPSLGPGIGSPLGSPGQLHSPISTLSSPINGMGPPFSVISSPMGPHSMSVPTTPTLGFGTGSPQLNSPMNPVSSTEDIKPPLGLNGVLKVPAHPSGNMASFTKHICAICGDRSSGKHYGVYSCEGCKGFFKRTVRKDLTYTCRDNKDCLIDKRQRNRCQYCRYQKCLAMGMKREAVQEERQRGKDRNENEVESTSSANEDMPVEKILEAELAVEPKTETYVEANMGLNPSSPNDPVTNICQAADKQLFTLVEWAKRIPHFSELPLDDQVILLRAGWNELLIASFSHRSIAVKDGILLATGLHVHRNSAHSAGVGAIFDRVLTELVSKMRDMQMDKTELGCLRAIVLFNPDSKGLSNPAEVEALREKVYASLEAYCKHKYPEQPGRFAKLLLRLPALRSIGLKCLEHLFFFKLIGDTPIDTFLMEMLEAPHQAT", "T1 sequence (P34021 whole entry E282G/G283S/G286V)": "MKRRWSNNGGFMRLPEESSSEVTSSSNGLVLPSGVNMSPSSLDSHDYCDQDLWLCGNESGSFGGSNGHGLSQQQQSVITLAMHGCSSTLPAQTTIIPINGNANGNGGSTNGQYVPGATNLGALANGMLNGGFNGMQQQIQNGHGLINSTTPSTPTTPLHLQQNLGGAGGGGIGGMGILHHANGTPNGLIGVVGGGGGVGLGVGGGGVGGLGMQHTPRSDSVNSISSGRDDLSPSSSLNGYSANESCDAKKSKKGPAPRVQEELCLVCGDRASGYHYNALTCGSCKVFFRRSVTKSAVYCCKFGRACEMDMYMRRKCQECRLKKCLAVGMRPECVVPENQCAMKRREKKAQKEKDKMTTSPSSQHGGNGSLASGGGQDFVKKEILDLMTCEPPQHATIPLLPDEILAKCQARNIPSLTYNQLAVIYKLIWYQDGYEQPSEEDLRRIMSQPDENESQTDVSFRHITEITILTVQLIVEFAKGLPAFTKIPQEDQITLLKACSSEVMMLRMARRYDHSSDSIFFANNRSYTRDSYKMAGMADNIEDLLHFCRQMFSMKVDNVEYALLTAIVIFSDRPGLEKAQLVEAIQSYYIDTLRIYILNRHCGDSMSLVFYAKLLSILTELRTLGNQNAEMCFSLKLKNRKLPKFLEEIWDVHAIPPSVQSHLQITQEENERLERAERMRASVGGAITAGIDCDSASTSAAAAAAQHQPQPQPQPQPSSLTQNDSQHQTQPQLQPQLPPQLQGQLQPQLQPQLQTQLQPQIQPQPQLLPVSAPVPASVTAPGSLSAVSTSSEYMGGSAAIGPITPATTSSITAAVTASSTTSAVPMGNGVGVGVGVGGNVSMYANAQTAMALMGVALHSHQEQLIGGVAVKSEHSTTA", "experiment": "Transactivation of reporter gene through switch 1.8 in 3T3 cells", "assay_type": "cell-based, Drosophila melanogaster; Mus musculus", "details": "switch 1.8, pIND(SP1)LacZ"}, "GAL4RXR + VP16DmEcR [4]": {"target": "T2, GAL4RXR + VP16DmEcR (Drosophila melanogaster, UniProt P34021)", "T2 sequence (P34021 254-878)": "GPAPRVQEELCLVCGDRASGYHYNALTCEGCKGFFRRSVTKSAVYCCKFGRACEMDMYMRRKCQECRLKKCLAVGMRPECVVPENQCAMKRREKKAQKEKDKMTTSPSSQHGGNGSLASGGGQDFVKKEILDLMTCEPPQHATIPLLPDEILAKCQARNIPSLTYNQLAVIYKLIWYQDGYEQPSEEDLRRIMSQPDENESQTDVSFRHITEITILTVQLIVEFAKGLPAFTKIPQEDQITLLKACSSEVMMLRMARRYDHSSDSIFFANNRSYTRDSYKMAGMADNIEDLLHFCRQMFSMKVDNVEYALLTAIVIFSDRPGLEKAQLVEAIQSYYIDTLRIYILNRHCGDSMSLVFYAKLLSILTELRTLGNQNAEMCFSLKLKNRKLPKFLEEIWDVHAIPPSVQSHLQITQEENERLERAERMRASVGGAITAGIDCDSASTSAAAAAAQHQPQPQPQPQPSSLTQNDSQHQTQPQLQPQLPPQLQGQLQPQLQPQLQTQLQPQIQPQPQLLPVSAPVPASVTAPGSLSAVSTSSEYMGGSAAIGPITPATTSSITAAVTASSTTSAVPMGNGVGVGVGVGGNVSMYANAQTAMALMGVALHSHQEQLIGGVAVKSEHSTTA", "T2 sequence (P28700 206-467 partner limits assumed)": "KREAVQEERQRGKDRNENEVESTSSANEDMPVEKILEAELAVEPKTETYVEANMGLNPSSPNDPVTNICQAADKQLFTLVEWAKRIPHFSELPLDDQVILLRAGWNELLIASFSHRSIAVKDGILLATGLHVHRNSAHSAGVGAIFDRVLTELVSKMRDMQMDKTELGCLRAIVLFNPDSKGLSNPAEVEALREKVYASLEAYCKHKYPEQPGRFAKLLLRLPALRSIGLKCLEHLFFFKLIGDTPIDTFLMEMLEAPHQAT", "experiment": "Transactivation of reporter gene through switch 1.4 in 293 cells", "assay_type": "cell-based, Mus musculus; Drosophila melanogaster", "details": "switch 1.4, pGAL4RELuc", "procedure": "(§5) This construct was prepared in the same way as switch 1.3 except CfEcRCDEF was replaced with DmEcRCDEF (SEQ ID NO: 6).\nas §2\n(§6) The same procedures described for CHO were followed for 293 cells except that the cells were plated in biocoated plates to avoid clumping.\nas §3"}, "GAL4CfEcRVP16": {"tested_on": "GAL4CfEcRVP16", "experiment": "Transactivation of reporter gene through switch 1.6 in 293 cells", "assay_type": "cell-based, Choristoneura fumiferana", "details": "switch 1.6, pGAL4RELuc", "procedure": "This construct was prepared so that both the GAL4 DNABD and the VP16AD were placed on the same molecule. GAL4DNABD (SEQ ID NO: 43) and VP16AD (SEQ ID NO: 49) were fused to CfEcRDEF (SEQ ID NO: 3) at N-and C-termini respectively.\nas §2, §6, §3"}, "GAL4EcR + VP16USP [5]": {"tested_on": "GAL4EcR + VP16USP", "experiment": "Transactivation of reporter gene through switch 1.2 in CV1 cells", "assay_type": "cell-based, Choristoneura fumiferana", "details": "switch 1.2, pGAL4RELuc", "procedure": "as §1, §2, §4\n(§7) The same procedures described for NIH3T3 cells were followed for CV1 cells\nas §3"}, "CfVgRXR + MmRXR": {"tested_on": "CfVgRXR + MmRXR", "experiment": "Transactivation of reporter gene through switch 1.9 in CV1 cells", "assay_type": "cell-based, Choristoneura fumiferana; Mus musculus", "details": "switch 1.9, pIND(SP1)LacZ", "procedure": "This example was prepared in the same way as switch 1.8 except DmEcR was replaced with a truncated CfEcR comprising a partial A/B domain and the complete CDEF domains [SEQ ID NO: 70 (polynucleotide) and SEQ ID NO: 71 (polypeptide)].\nas §2, §4, §7, §3"}, "CfVgRXR": {"tested_on": "CfVgRXR", "experiment": "Transactivation of reporter gene through switch 1.10 in CV1 cells", "assay_type": "cell-based, Choristoneura fumiferana", "details": "switch 1.10, pIND(SP1)LacZ", "procedure": "This example was prepared in the same way as switch 1.9 except MmRXR (SEQ ID NO: 62) was deleted.\nas §2, §4, §7, §3"}, "CfEcR": {"tested_on": "CfEcR", "experiment": "Transactivation through CfEcR- versus DmEcR-based switches in mammalian cell lines (Tables 1–4)", "parameters": "species or system Choristoneura fumiferana", "procedure": "as §3"}, "DmVgRXR + MmRXR [6]": {"target": "T1, DmVgRXR + MmRXR", "experiment": "Transactivation of reporter gene through switch 1.8 in CHO cells", "assay_type": "cell-based, Drosophila melanogaster; Mus musculus", "parameters": "host or cells: CHO, NIH3T3, 293 or CV1 cells", "details": "switch 1.8, pIND(SP1)LacZ", "text": "This system was purchased from Invitrogen Corp., Carlsbad, California. It comprises a Drosophila melanogaster EcR (“DmEcR”) with a modified DNABD fused to VP16AD and placed under the control of a CMV promoter (SEQ ID NO: 68). Full length MmRXR (SEQ ID NO: 62) was placed under the control of the RSV promoter (SEQ ID NO: 69). The reporter, pIND(SP1)LacZ, contains five copies of a modified ecdysone response element (“EcRE”, E/GRE), three copies of an SPI enhancer, and a minimal heat shock promoter, all of which were placed upstream to the LacZ reporter gene.\nas §2, §3"}, "GAL4RXR + VP16DmEcR [7]": {"target": "T2, GAL4RXR + VP16DmEcR", "experiment": "Transactivation of reporter gene through switch 1.4 in CV1 cells", "assay_type": "cell-based, Mus musculus; Drosophila melanogaster", "parameters": "expressed in transfected cells; host or cells: CV1 cells", "details": "switch 1.4, pGAL4RELuc", "procedure": "as §5, §2, §4, §7, §3"}},
  "data": [
    {"molecule": "CCc1c(OC)cccc1C(=O)NN(C(=O)c1cc(C)cc(C)c1)C(C)(C)C", "note": "[N-(2-ethyl-3-methoxybenzoyl)-N′-(3,5-dimethylbenzoyl)-N′-t-butylhydrazine]", "values": [
      {"measurement": "Mean Fold Activation with 50 μM N-(2-ethyl-3-methoxybenzoyl)-N′-(3,5-dimethylbenzoyl)-N′-t-butylhydrazine", "setting": "GAL4EcR + VP16USP [1]", "result": 2, "unit": "fold"},
      {"measurement": "Mean Fold Activation with 50 μM N-(2-ethyl-3-methoxybenzoyl)-N′-(3,5-dimethylbenzoyl)-N′-t-butylhydrazine", "setting": "GAL4RXR + VP16CfEcR", "result": 85, "unit": "fold"},
      {"measurement": "Mean Fold Activation with 50 μM N-(2-ethyl-3-methoxybenzoyl)-N′-(3,5-dimethylbenzoyl)-N′-t-butylhydrazine", "setting": "GAL4USP + VP16CfEcR", "result": 2, "unit": "fold"},
      {"measurement": "Mean Fold Activation Through N-(2-ethyl-3-methoxybenzoyl)-N′-(3,5-dimethylbenzoyl)-N′-t-butylhydrazine", "setting": "GAL4EcR + VP16USP [2]", "result": 2, "unit": "fold"},
      {"measurement": "Mean Fold Activation Through N-(2-ethyl-3-methoxybenzoyl)-N′-(3,5-dimethylbenzoyl)-N′-t-butylhydrazine", "setting": "DmVgRXR + MmRXR [3]", "result": 21, "unit": "fold"},
      {"measurement": "Mean Fold Activation Through N-(2-ethyl-3-methoxybenzoyl)-N′-(3,5-dimethylbenzoyl)-N′-t-butylhydrazine", "setting": "GAL4RXR + VP16DmEcR [4]", "result": 3, "unit": "fold"},
      {"measurement": "Mean Fold Activation Through N-(2-ethyl-3-methoxybenzoyl)-N′-(3,5-dimethylbenzoyl)-N′-t-butylhydrazine", "setting": "GAL4CfEcRVP16", "result": 3, "unit": "fold"},
      {"measurement": "Mean Fold Activation Through N-(2-ethyl-3-methoxybenzoyl)-N′-(3,5-dimethylbenzoyl)-N′-t-butylhydrazine", "setting": "GAL4EcR + VP16USP [5]", "result": 2, "unit": "fold"},
      {"measurement": "Mean Fold Activation Through N-(2-ethyl-3-methoxybenzoyl)-N′-(3,5-dimethylbenzoyl)-N′-t-butylhydrazine", "setting": "CfVgRXR + MmRXR", "result": 7, "unit": "fold"},
      {"measurement": "Mean Fold Activation Through N-(2-ethyl-3-methoxybenzoyl)-N′-(3,5-dimethylbenzoyl)-N′-t-butylhydrazine", "setting": "CfVgRXR", "result": 1, "unit": "fold"},
      {"measurement": "Potency as activator of CfEcR compared to DmEcR", "setting": "CfEcR", "result": "more potent activators of CfEcR as compared to Drosophila melanogaster EcR (DmEcR)"},
      {"measurement": "Mean Fold Activation with 50 μM N-(2-ethyl-3-methoxybenzoyl)-N′-(3,5-dimethylbenzoyl)-N′-t-butylhydrazine", "setting": "DmVgRXR + MmRXR [6]", "result": 14, "unit": "fold"},
      {"measurement": "Mean Fold Activation Through N-(2-ethyl-3-methoxybenzoyl)-N′-(3,5-dimethylbenzoyl)-N′-t-butylhydrazine", "setting": "GAL4RXR + VP16DmEcR [7]", "result": 80, "unit": "fold"}
    ]}
  ]
}
